From patent US20040237845A1 (priority 2002, published 2004)

Assay type: physicochemical
Settings: kaolin clay slurry, no further addition of acid or chlorine donor

## Sodium Chlorite [stabilized chlorine dioxide]
  persistence of oxidizing/biocidal effects: up to 14 days
